Results on 2 compounds are retold here after patent US20120329862A1, “NOVEL COMPOUND HAVING INHIBITORY EFFECT ON LIPASE” (SUNTORY HOLDINGS LIMITED, priority 2004, published 2012).

pIC50: −log10 of the molar value.

What is called pIC50 is −log10 of the IC50, conventionally taken in molar units. Read a low pIC50 as a large IC50.

The target in data set [1] is T1, porcine pancreatic lipase (Sus scrofa, UniProt P00591).
T1 construct: purchased Sigma
T1 sequence (P00591 1-450): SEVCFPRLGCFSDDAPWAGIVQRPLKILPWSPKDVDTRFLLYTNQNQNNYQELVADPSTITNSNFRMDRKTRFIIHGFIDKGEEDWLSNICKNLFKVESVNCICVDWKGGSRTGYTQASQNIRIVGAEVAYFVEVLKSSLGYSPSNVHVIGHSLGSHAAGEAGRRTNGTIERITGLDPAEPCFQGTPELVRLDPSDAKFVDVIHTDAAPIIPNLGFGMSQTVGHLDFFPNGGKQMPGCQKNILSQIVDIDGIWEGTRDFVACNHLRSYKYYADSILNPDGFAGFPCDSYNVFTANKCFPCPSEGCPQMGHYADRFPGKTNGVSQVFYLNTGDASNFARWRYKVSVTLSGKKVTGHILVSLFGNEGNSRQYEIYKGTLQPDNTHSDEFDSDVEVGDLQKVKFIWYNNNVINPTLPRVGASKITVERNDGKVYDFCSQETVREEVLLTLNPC
As to the kind of experiment: Lipase inhibitory activity measurement (4-UMO fluorescent substrate). It counts as biochemical. Particulars: 4-UMO substrate, pH 8.0, 25° C., 30 minutes. The method, then:
Lipase activity measurement was carried out by using oleic acid ester of fluorescent 4-methylumbelliferone (4-UMO) as a substrate, and measuring the fluorescence of 4-methylumbelliferone produced by reaction.
In the measurement, 13 mM Tris-HCl containing 150 mM NaCl and 1.36 mM CaCl2 was used as a buffer (pH 8.0). Substrate 4-UMO (Sigma) was prepared as 0.1M solution in DMSO and diluted 1000-fold with the buffer mentioned above. Similarly, lipase (porcine pancreatic lipase (Sigma)) was prepared as 400 U/ml solution in the buffer mentioned above and used in enzymatic measurement.
50 μl of the 4-UMO buffer solution and 25 μl of distilled water (or sample solution) were placed in a 96-well microplate and mixed at 25° C., followed by adding 25 μl of the lipase buffer solution to start enzyme reaction. After 30 minutes of reaction, 100 μl of 0.1M citric acid buffer (pH 4.2) was added to terminate the reaction, and the fluorescence of 4-methylumbelliferone (excitation wavelength: 355 nm, fluorescence wavelength: 460 nm) produced by the reaction was measured with a fluorescence plate reader (Labsystems, Fluoroskan Asent CF).
An inhibitory activity of the sample was determined as IC50, or the amount of the sample which gave […] of inhibition compared to the activity of control (distilled water).

Data set [2] can be described thus: Solubility of purified compound. It counts as physicochemical. As to conditions: purified white powder. The text has this: The product obtained from oxidative polymerization reaction may be purified by conventional methods such as chromatography. […] Therefore, this compound is suitable for use in, for example, foods and/or beverages, and pharmaceutical drugs as an active lipase inhibitory ingredient for suppressing absorption of dietary lipids, thereby suppressing the rise of blood triglyceride or decreasing increased blood triglyceride.

Take `O=C(O[C@@H]1Cc2c(O)cc(O)cc2O[C@@H]1C1=CC(=O)C2(O)Oc3c(O)c(O)cc([C@H]4Oc5cc(O)cc(O)c5C[C@H]4OC(=O)c4cc(O)c(O)c(O)c4)c3C12)c1cc(O)c(O)c(O)c1` (some centres unmarked) [OTNG, oolongtheanin-3′-O-gallate]: the pIC50 in data set [1] and in data set [1] (value in brackets) was 7.17 throughout. The solubility result in data set [2] is “soluble in water, methanol and DMSO”.
With “epigallocatechin-3-O-gallate [EGCG, reference compound]”, the “lipase inhibitory activity IC50” value in data set [1] was 0.16 µg/mL. The same compound gave a pIC50 in data set [1] (value in brackets) of 6.46.
